# Results from ChEMBL document CHEMBL1131216, “Anhydrolide macrolides. 2. Synthesis and antibacterial activity of 2,3-anhydro-6-O-methyl 11,12-carbazate erythromycin A analogues” (1998).
# Legend:
# Assay type in all cases: functional
# Streptococcus pneumoniae [1] = experiment: In vitro antibacterial activity of ATCC 6303 strain of Gram positive bacteria Streptococcus pneumoniae
# Haemophilus influenzae = experiment: In vitro antibacterial activity of DILL strain of Gram negative bacteria Haemophilus influenzae
# Streptococcus pneumoniae [2] = experiment: In vitro antibacterial activity of 5649 strain of Gram positive bacteria Streptococcus pneumoniae
# Streptococcus pyogenes [3] = experiment: In vitro antibacterial activity of EES61 strain of Gram positive bacteria Streptococcus pyogenes
# Staphylococcus aureus [4] = experiment: In vitro antibacterial activity of A5177 strain of Gram positive bacteria Staphylococcus aureus
# Streptococcus pyogenes [5] = experiment: In vitro antibacterial activity of PIU2584 strain of Gram positive bacteria Streptococcus pyogenes
# Staphylococcus aureus [6] = experiment: In vitro antibacterial activity of A-5278 strain of Gram positive bacteria Staphylococcus aureus
# Streptococcus pyogenes [7] = experiment: In vitro antibacterial activity of 930 strain of Gram positive bacteria Streptococcus pyogenes
# Streptococcus pneumoniae [8] = experiment: In vitro antibacterial activity of 5979 strain of Gram positive bacteria Streptococcus pneumoniae
# Staphylococcus aureus [9] = experiment: In vitro antibacterial activity of 6538P strain of Gram positive bacteria Staphylococcus aureus
Compound,MIC (Streptococcus pneumoniae [1]) [µg/mL],MIC (Haemophilus influenzae) [µg/mL],MIC (Streptococcus pneumoniae [2]) [µg/mL],MIC (Streptococcus pyogenes [3]) [µg/mL],MIC (Staphylococcus aureus [4]) [µg/mL],MIC (Streptococcus pyogenes [5]) [µg/mL],MIC (Staphylococcus aureus [6]) [µg/mL],MIC (Streptococcus pyogenes [7]) [µg/mL],MIC (Streptococcus pneumoniae [8]) [µg/mL],MIC (Staphylococcus aureus [9]) [µg/mL]
CC[C@H]1OC(=O)/C(C)=C/[C@H](C)[C@@H](O[C@@H]2O[C@H](C)C[C@H](N(C)C)[C@H]2O)[C@@](C)(OC)C[C@@H](C)C(=O)[C@H](C)[C@H]2N(NCCCc3cccc(Cl)c3)C(=O)O[C@]12C,0.25,32,2,0.25,0.39,1,50,16,32,0.39
CC[C@H]1OC(=O)/C(C)=C/[C@H](C)[C@@H](O[C@@H]2O[C@H](C)C[C@H](N(C)C)[C@H]2O)[C@@](C)(OC)C[C@@H](C)[C@@H]2NN3C(=O)O[C@@]1(C)[C@H]3[C@H]2C,> 128,> 128,> 128,> 128,> 100,> 128,> 100,> 128,> 128,> 100
CC[C@H]1OC(=O)/C(C)=C/[C@H](C)[C@@H](O[C@@H]2O[C@H](C)C[C@H](N(C)C)[C@H]2O)[C@@](C)(OC)C[C@@H](C)C(=O)[C@H](C)[C@H]2N(NCCCc3ccc(Cl)cc3Cl)C(=O)O[C@]12C,0.125,16,2,0.06,0.39,1,25,8,8,0.39
CC[C@H]1OC(=O)/C(C)=C/[C@H](C)[C@@H](O[C@@H]2O[C@H](C)C[C@H](N(C)C)[C@H]2O)[C@@](C)(OC)C[C@@H](C)C(=O)[C@H](C)[C@H]2N(NCCCc3ccccc3)C(=O)O[C@]12C,0.125,16,2,0.06,0.1,1,50,32,64,0.1
CC[C@H]1OC(=O)/C(C)=C/[C@H](C)[C@@H](O[C@@H]2O[C@H](C)C[C@H](N(C)C)[C@H]2O)[C@@](C)(OC)C[C@@H](C)C(=O)[C@H](C)[C@H]2N(NCc3ccc(C(F)(F)F)cc3)C(=O)O[C@]12C,0.06,16,2,0.06,0.78,2,100,16,16,0.78
CC[C@H]1OC(=O)/C(C)=C/[C@H](C)[C@@H](O[C@@H]2O[C@H](C)C[C@H](N(C)C)[C@H]2O)[C@@](C)(OC)C[C@@H](C)C(=O)[C@H](C)[C@H]2N(NCc3c[nH]c4ccccc34)C(=O)O[C@]12C,0.125,8,1,0.06,0.39,0.5,> 100,> 64,> 64,0.39
CC[C@H]1OC(=O)/C(C)=C/[C@H](C)[C@@H](O[C@@H]2O[C@H](C)C[C@H](N(C)C)[C@H]2O)[C@@](C)(OC)C[C@@H](C)C(=O)[C@H](C)[C@H]2N(N)C(=O)O[C@]12C,0.25,32,1,0.25,1.56,1,> 100,> 64,> 64,1.56
CC[C@H]1OC(=O)/C(C)=C/[C@H](C)[C@@H](O[C@@H]2O[C@H](C)C[C@H](N(C)C)[C@H]2O)[C@@](C)(OC)C[C@@H](C)C(=O)[C@H](C)[C@H]2N(NCCc3ccccc3)C(=O)O[C@]12C,0.25,> 64,2,0.25,0.78,2,> 100,64,> 64,0.78
CC[C@H]1OC(=O)/C(C)=C/[C@H](C)[C@@H](O[C@@H]2O[C@H](C)C[C@H](N(C)C)[C@H]2O)[C@@](C)(OC)C[C@@H](C)C(=O)[C@H](C)[C@H]2N(NCc3ccccc3O)C(=O)O[C@]12C,0.06,2,2,0.03,0.2,0.5,> 100,> 64,> 64,0.2
CC[C@H]1OC(=O)/C(C)=C/[C@H](C)[C@@H](O[C@@H]2O[C@H](C)C[C@H](N(C)C)[C@H]2O)[C@@](C)(OC)C[C@@H](C)C2=NN3C(=O)O[C@@]1(C)[C@H]3[C@H]2C,> 128,> 128,> 128,> 128,> 100,> 128,> 100,> 128,> 128,> 100
CC[C@H]1OC(=O)/C(C)=C/[C@H](C)[C@@H](O[C@@H]2O[C@H](C)C[C@H](N(C)C)[C@H]2O)[C@@](C)(OC)C[C@@H](C)C(=O)[C@H](C)[C@H]2N(NCc3ccc(N(C)C)c4ccccc34)C(=O)O[C@]12C,0.5,16,2,0.25,3.1,2,100,16,32,3.1

# Continued by falling MIC (Streptococcus pneumoniae [1]), values first:
MIC (Streptococcus pneumoniae [1]) [µg/mL],MIC (Haemophilus influenzae) [µg/mL],MIC (Streptococcus pneumoniae [2]) [µg/mL],MIC (Streptococcus pyogenes [3]) [µg/mL],MIC (Staphylococcus aureus [4]) [µg/mL],MIC (Streptococcus pyogenes [5]) [µg/mL],MIC (Staphylococcus aureus [6]) [µg/mL],MIC (Streptococcus pyogenes [7]) [µg/mL],MIC (Streptococcus pneumoniae [8]) [µg/mL],MIC (Staphylococcus aureus [9]) [µg/mL],Compound
0.06,16,2,0.03,0.39,1,> 100,64,> 64,0.39,CC[C@H]1OC(=O)/C(C)=C/[C@H](C)[C@@H](O[C@@H]2O[C@H](C)C[C@H](N(C)C)[C@H]2O)[C@@](C)(OC)C[C@@H](C)C(=O)[C@H](C)[C@H]2N(NCCCc3ccc(OC)cc3)C(=O)O[C@]12C
0.03,8,1,0.03,0.2,0.5,> 100,> 128,> 128,0.39,CC[C@H]1OC(=O)/C(C)=C/[C@H](C)[C@@H](O[C@@H]2O[C@H](C)C[C@H](N(C)C)[C@H]2O)[C@@](C)(OC)C[C@@H](C)C(=O)[C@H](C)[C@H]2N(NCc3ccncc3)C(=O)O[C@]12C
0.03,4,0.5,0.015,0.02,0.5,> 100,128,> 128,0.05,CC[C@H]1OC(=O)/C(C)=C/[C@H](C)[C@@H](O[C@@H]2O[C@H](C)C[C@H](N(C)C)[C@H]2O)[C@@](C)(OC)C[C@@H](C)C(=O)[C@H](C)[C@H]2N(NCc3ccc(C#N)cc3)C(=O)O[C@]12C
0.03,8,1,0.03,0.1,1,> 100,64,64,0.1,CC[C@H]1OC(=O)/C(C)=C/[C@H](C)[C@@H](O[C@@H]2O[C@H](C)C[C@H](N(C)C)[C@H]2O)[C@@](C)(OC)C[C@@H](C)C(=O)[C@H](C)[C@H]2N(NCCCc3ccc([N+](=O)[O-])cc3)C(=O)O[C@]12C
0.03,4,1,0.03,0.2,0.5,> 100,> 128,> 128,0.2,CC[C@H]1OC(=O)/C(C)=C/[C@H](C)[C@@H](O[C@@H]2O[C@H](C)C[C@H](N(C)C)[C@H]2O)[C@@](C)(OC)C[C@@H](C)C(=O)[C@H](C)[C@H]2N(NCc3ccccc3CO)C(=O)O[C@]12C
0.03,8,1,0.03,0.05,1,> 100,128,> 128,0.05,CC[C@H]1OC(=O)/C(C)=C/[C@H](C)[C@@H](O[C@@H]2O[C@H](C)C[C@H](N(C)C)[C@H]2O)[C@@](C)(OC)C[C@@H](C)C(=O)[C@H](C)[C@H]2N(NCc3ccc([N+](=O)[O-])cc3)C(=O)O[C@]12C
0.004,8,0.5,0.004,0.2,1,> 100,128,> 128,0.2,CC[C@H]1OC(=O)/C(C)=C/[C@H](C)[C@@H](O[C@@H]2O[C@H](C)C[C@H](N(C)C)[C@H]2O)[C@@](C)(OC)C[C@@H](C)C(=O)[C@H](C)[C@H]2N(NCCCn3nc4ccccc4n3)C(=O)O[C@]12C
0.004,1,0.5,0.008,0.05,0.25,> 100,2,8,0.1,CC[C@H]1OC(=O)C(C)C(=O)[C@H](C)[C@@H](O[C@@H]2O[C@H](C)C[C@H](N(C)C)[C@H]2O)[C@@](C)(OC)C[C@@H](C)C(=O)[C@H](C)[C@H]2N(NCCCc3ccnc4ccccc34)C(=O)O[C@]12C (stereo not given in full)
0.004,8,0.25,0.004,0.2,0.25,> 100,64,128,0.2,CC[C@H]1OC(=O)/C(C)=C/[C@H](C)[C@@H](O[C@@H]2O[C@H](C)C[C@H](N(C)C)[C@H]2O)[C@@](C)(OC)C[C@@H](C)C(=O)[C@H](C)[C@H]2N(NCCCc3cccc([N+](=O)[O-])c3)C(=O)O[C@]12C
